Assay results reported in US12144802B2, “Pharmaceutical compositions of roflumilast and solvents capable of dissolving high amounts of the drug” (ARCUTIS BIOTHERAPEUTICS, INC., priority 2022, dated 2024).

Test: solubility (saturation concentration) of roflumilast in solvent-water blends, HPLC after 0.2 micron filtration
Assay type: physicochemical
Conditions: controlled room temperature
Description: The solubility of roflumilast in various solvents was determined. Compositions of roflumilast and the solvents identified in Table 1 were prepared. To prepare the compositions, 10 g of a solvent-water blend was added into a 20 mL clear glass vial. 0.05 g of the active pharmaceutical ingredient (API), roflumilast, was added into the vial. The vial was mixed on a jar roller at controlled room temperature at an appropriate speed. A visual evaluation was performed after shaking. If all of the API was dissolved, an additional 0.05 g of API was added into the vial and further mixing was performed. If any API remained undissolved, the total amount of API added to the vial was recorded. The visual inspection was repeated as necessary until no more API could be dissolved. For each solvent, the solubility was determined by syringe filtering (0.2 micron filter) the solvent blend to remove undissolved roflumilast and determining the amount of dissolved roflumilast using HPLC analysis. Composition of the solvent blends were an equal molar solvent-water mixtures, as well as a 1:2 (weight:weight) solvent-water blends. Transcutol P, which is described for use with roflumilast in U.S. Patent Publication No. 2019/009133, was used as a reference point in Example 1.

With `O=C(Nc1c(Cl)cncc1Cl)c1ccc(OC(F)F)c(OCC2CC2)c1` [roflumilast, N-(3,5-dichloropyrid-4-yl)-3-cyclopropylmethoxy-4-difluoromethoxybenzamide] the “μg roflumilast per mL blend (saturation concentration)” value (shortened to “μg roflumilast per mL blend”) (1:2 solvent to water (weight:weight), reference solvent Transcutol P (111-90-0), 5.00 g solvent, 10.01 g water) was 45.01 µg/mL, the “μg roflumilast per mL blend” value (1:2 solvent to water (weight:weight), solvent 1,2-hexanediol (6920-22-5), 5.02 g solvent, 10.02 g water) was 293.26 µg/mL and the “μg roflumilast per mL blend” value (1:2 solvent to water (weight:weight), solvent 1,2-pentanediol (3174-67-2), 5.01 g solvent, 10.04 g water) was 139.71 µg/mL. For the same compound, the “μg roflumilast per mL blend” value (1:2 solvent to water (weight:weight), solvent 1,3-butylene glycol (107-88-0), 5.01 g solvent, 10.00 g water) was 11.27 µg/mL, the “μg roflumilast per mL blend” value (1:2 solvent to water (weight:weight), solvent 1,3-propanediol (504-63-2), 5.01 g solvent, 10.02 g water) was 6.23 µg/mL and the “μg roflumilast per mL blend” value (1:2 solvent to water (weight:weight), solvent 1,6-hexanediol (629-11-8), 5.01 g solvent, 10.02 g water) was 112.31 µg/mL. For the same compound, the “μg roflumilast per mL blend” value (1:2 solvent to water (weight:weight), solvent 2-(2-butoxy-ethoxy)ethanol (112-34-5), 5.01 g solvent, 10.01 g water) was 802.24 µg/mL, the “μg roflumilast per mL blend” value (1:2 solvent to water (weight:weight), solvent 5-methyloxolan-2-one (108-29-2), 5.01 g solvent, 10.01 g water) was 392.14 µg/mL and the “μg roflumilast per mL blend” value (1:2 solvent to water (weight:weight), solvent Pantolactone (599-04-2), 5.03 g solvent, 10.02 g water) was 62.04 µg/mL. For the same compound, the “μg roflumilast per mL blend” value (1:2 solvent to water (weight:weight), solvent dipropylene glycol (25265-71-8), 5.01 g solvent, 10.01 g water) was 34.44 µg/mL, the “μg roflumilast per mL blend” value (1:2 solvent to water (weight:weight), solvent propylene glycol methyl ethyl acetate (107-98-2), 5.01 g solvent, 10.03 g water) was 65.80 µg/mL and the “μg roflumilast per mL blend” value (equal molar solvent-water blend, reference solvent Transcutol P (111-90-0), 2.00 g solvent, 14.81 g water) was 2.55 µg/mL. The “μg roflumilast per mL blend” value (equal molar solvent-water blend, solvent 1,2-hexanediol (6920-22-5), 2.00 g solvent, 13.24 g water) was 37.67 µg/mL, the “μg roflumilast per mL blend” value (equal molar solvent-water blend, solvent 1,2-pentanediol (3174-67-2), 2.21 g solvent, 12.80 g water) was 4.16 µg/mL and the “μg roflumilast per mL blend” value (equal molar solvent-water blend, solvent 1,3-butylene glycol (107-88-0), 2.52 g solvent, 12.51 g water) was 1.46 µg/mL. For the same compound, the “μg roflumilast per mL blend” value (equal molar solvent-water blend, solvent 1,3-propanediol (504-63-2), 3.00 g solvent, 12.60 g water) was 2.77 µg/mL, the “μg roflumilast per mL blend” value (equal molar solvent-water blend, solvent 1,6-hexanediol (629-11-8), 2.00 g solvent, 13.11 g water) was 5.81 µg/mL and the “μg roflumilast per mL blend” value (equal molar solvent-water blend, solvent 2-(2-butoxy-ethoxy)ethanol (112-34-5), 1.50 g solvent, 13.50 g water) was 2.29 µg/mL. For the same compound, the “μg roflumilast per mL blend” value (equal molar solvent-water blend, solvent 5-methyloxolan-2-one (108-29-2), 2.51 g solvent, 14.03 g water) was 7.80 µg/mL, the “μg roflumilast per mL blend” value (equal molar solvent-water blend, solvent Pantolactone (599-04-2), 2.00 g solvent, 14.41 g water) was 0.96 µg/mL and the “μg roflumilast per mL blend” value (equal molar solvent-water blend, solvent dipropylene glycol (25265-71-8), 2.02 g solvent, 14.84 g water) was 2.27 µg/mL. The “μg roflumilast per mL blend” value (equal molar solvent-water blend, solvent propylene glycol methyl ethyl acetate (107-98-2), 2.50 g solvent, 12.52 g water) was 6.04 µg/mL.
